# Results published in article PMC12191924, “A new naphthalene-based fluorogenic substrate for cytochrome P450 4A11” (Biochemical Journal, 2025).
# Read-outs that look alike come from different tables or passages of the source.
# Tested on: pooled human liver microsomes (HLM)
# Assay: Substrate saturation profiles of MONACRA metabolism by pooled HLM, global fitting
# Assay type: in vitro ADME
# Conditions: for Km: global fitting of seven pooled HLM preparations
# From the text: To probe the MONACRA metabolism by the human liver P450 system, we explored the SSPs of our new fluorogenic substrate by seven different pooled HLM preparations with P450 pool composition characterized by a global proteomics toolkit. […] The first two principal components cover 99.4% of the overall differences between the individual SSPs. While the first principal component mainly reflects the differences in SSP amplitude, the second PC is responsible for the changes in the contribution of the high- and low-affinity components. Global fitting of the dataset with a combination of three Michaelis–Menten equations yielded the components with K M values of 21, 213, and 730 µM (Figure 10C). The combinations of these three Michaelis–Menten components approximate all individual SSPs of the dataset with a square correlation coefficient (R ^2) higher than 0.998.
# Figure 10: Substrate saturation profiles (SSPs) of 3-(6-methoxynaphthalen-2-yl)acrylic acid (MONACRA) metabolism by seven pooled preparations of human liver microsomes (HLMs) and their global analysis. The HLM preparations used in this study and their designations are described in the “Materials and Methods” section of the article. […] These two principal components cover 99.4% of the overall differences between the SSPs. […] The substance label MONACRA is taken from the axis title, as no other label is printed.
# This study used preparations of pooled HLMs from 50, 150, or 200 donors (mixed gender). The preparations CDN, DNJ, and WGP were INVITROCYP 150-Donor Human Liver Microsomes obtained from BioIVT Corporation (Westbury, NY). Lot EGW is INVITROCYP M-Class 50-Donor HLM procured from the same company. Lots 1,910,096 and 1,210,347 were XTreme 200 Mixed Gender HLM (200 donors) purchased from XenoTech LLC (Kansas City, KS), currently a part of BioIVT. Lot 2,110,263 corresponds to mixed gender HLM from 50 donors from the same company. These lots are referred to herein as X096, X347, and X263, respectively. The supplier of the HLM preparations used in our studies, BioIVT Corporation, has declared to adhere to the regulations of the Department of Health and Human Services for the protection of human subjects (45 CFR §46.116 and §46.117) and Good Clinical Practice, (ICH E6) in obtaining the samples of human tissues used for producing the preparations of human subcellular fractions available from these companies.
# The MONACRA metabolism experiments were conducted with 12 MONACRA stock solutions in the Incubation Buffer (0.1 M Hepes buffer pH 7.4 containing 60 mM KCl) with concentrations ranging from 0 to 3.3 mM prepared with serial dilution. A 0.3 M stock solution of MONACRA in DMSO was diluted by the Incubation Buffer to prepare the most concentrated (3.3 mM) solution in the series. This series of stock solutions provided the MONACRA concentrations in the incubation mixture decreasing from 825 to 0 µM with a dilution factor of 1.73333 (≈√3). The procedure of preparing the multiwell plates for activity assays was similar to that described earlier for FA-based assays. The prepared plate was placed into a heater-shaker module with a PCR-plate adapter in location 1 of the OT-2 deck. Suspensions of microsomes were diluted to the desired concentration (0.02–0.1 µM P450 for recombinant enzymes and 0.3–1 mg/ml for HLM samples) and placed into all eight wells of the first row of a PCR plate (96-well semi-skirted PCR plate, BrandTech Scientific Inc., Essex, CT), 255 µl per well. The PCR plate was inserted into a pre-cooled PCR-plate cooling block (Eppendorf, Hamburg, Germany) and placed at position 5 of the OT-2 deck. An Azzota deep-well plate placed in location 6 contained 0.4 ml of 0.3 M solution trichloroacetic acid as a quenching reagent. The second row of the same plate contained 0.6 ml of 2.4 molar Na-glycine buffer, pH 10.4. […]
# [1] = across seven pooled HLM preparations
compound,measurement,setting,value
"COc1ccc2cc(C=CC(=O)O)ccc2c1 [MONACRA, 3-(6-methoxynaphthalen-2-yl)acrylic acid]",F 1 (fractional contribution of high-affinity phase),HLM sample CDN,0.1%
same,F 2 (fractional contribution of middle-affinity phase),HLM sample CDN,68.7%
same,F 3 (fractional contribution of low-affinity phase),HLM sample CDN,31.2%
same,F 1 (fractional contribution of high-affinity phase),HLM sample DNJ,0.5%
same,F 2 (fractional contribution of middle-affinity phase),HLM sample DNJ,91.6%
same,F 3 (fractional contribution of low-affinity phase),HLM sample DNJ,7.9%
same,F 1 (fractional contribution of high-affinity phase),HLM sample EGW,2.5%
same,F 2 (fractional contribution of middle-affinity phase),HLM sample EGW,97.5%
same,F 3 (fractional contribution of low-affinity phase),HLM sample EGW,0.0%
same,F 1 (fractional contribution of high-affinity phase),HLM sample WGP,0.0%
same,F 2 (fractional contribution of middle-affinity phase),HLM sample WGP,34.4%
same,F 3 (fractional contribution of low-affinity phase),HLM sample WGP,65.6%
same,F 1 (fractional contribution of high-affinity phase),HLM sample X096,9.8%
same,F 2 (fractional contribution of middle-affinity phase),HLM sample X096,0.0%
same,F 3 (fractional contribution of low-affinity phase),HLM sample X096,90.2%
same,F 1 (fractional contribution of high-affinity phase),HLM sample X263,21.7%
same,F 2 (fractional contribution of middle-affinity phase),HLM sample X263,21.5%
same,F 3 (fractional contribution of low-affinity phase),HLM sample X263,56.8%
same,"fraction of the high-affinity phase, average",[1],5.5%
same,"fraction of the lowest affinity component, average",[1],45.3%
same,"fraction of the lowest affinity component, range",[1],0–90%
same,"fraction of the middle-affinity phase, average",[1],49.2%
same,"fraction of the middle-affinity phase, range",[1],0–100%
same,Km,read-out: KM of high-affinity Michaelis–Menten component,21 µM
same,Km,read-out: KM of low-affinity Michaelis–Menten component,730 µM
same,Km,read-out: KM of middle-affinity Michaelis–Menten component,213 µM
